Results: ChEMBL document CHEMBL1743341, “Cytochrome p450 enzymes mechanism based inhibitors: common sub-structures and reactivity” (Curr Drug Metab, 2005)
Blank lines part the entries; values can stand above or below the compound they belong to.

What was measured:
[1] = target: T1, Cytochrome P450 2E1 (Rattus norvegicus, UniProt P05182); test: Mechanism based inhibition of rabbit cytochrome P450 CYP2E1 measured by P-nitrophenol (PNP) hydroxylase activity; type: ADME, Oryctolagus cuniculus; conditions: target entry is the homologue from another species
[2] = target: T1, Cytochrome P450 2E1; test: Mechanism based inhibition of rat cytochrome P450 CYP2E1; type: ADME
[3] = target: Cytochrome P450 3A11 (Mus musculus, UniProt Q64459); test: Mechanism based inhibition of mouse cytochrome P450 CYP3A11; type: ADME
[4] = target: T2, Cytochrome P450 1A1 (Rattus norvegicus, UniProt P00185); test: (§1) Mechanism based inhibition of rat cytochrome P450 CYP1A1 measured by ethoxyresorufin O-deethylation warfarin R-6 and R-8 hydroxylation; type: ADME
T2 sequence (P00185 whole entry): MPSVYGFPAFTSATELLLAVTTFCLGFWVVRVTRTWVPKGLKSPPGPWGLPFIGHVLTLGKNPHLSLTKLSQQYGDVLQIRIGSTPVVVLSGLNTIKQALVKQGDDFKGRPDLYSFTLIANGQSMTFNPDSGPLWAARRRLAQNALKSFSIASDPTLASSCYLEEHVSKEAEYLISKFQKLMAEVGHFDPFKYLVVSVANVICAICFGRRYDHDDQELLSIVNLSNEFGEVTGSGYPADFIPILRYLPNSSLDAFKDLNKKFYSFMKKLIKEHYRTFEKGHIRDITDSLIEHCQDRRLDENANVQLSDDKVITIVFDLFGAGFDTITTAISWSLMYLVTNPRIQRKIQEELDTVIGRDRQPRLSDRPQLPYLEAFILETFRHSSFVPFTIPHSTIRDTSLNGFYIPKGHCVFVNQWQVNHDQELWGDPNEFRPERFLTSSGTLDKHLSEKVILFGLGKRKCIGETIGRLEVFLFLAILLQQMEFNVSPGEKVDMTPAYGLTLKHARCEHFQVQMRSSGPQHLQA

[5] = target: T3, CYP1A1 (Rattus norvegicus, UniProt P00185); test: as §1; type: ADME; conditions: rat
T3 sequence (P00185 whole entry): T2 sequence (P00185 whole entry)

[6] = target: Cytochrome P450 4A4 (Oryctolagus cuniculus, UniProt P10611); test: Mechanism based inhibition of rabbit cytochrome P450 CYP4A4; type: ADME
[7] = target: Cytochrome P450 11B1, mitochondrial (Bos taurus, UniProt P15150); test: Mechanism based inhibition of bovine cytochrome P450 CYP11B1; type: ADME; conditions: cattle
[8] = target: T4, Cytochrome P450 1A2 (Homo sapiens, UniProt P05177); test: (§2) Mechanism based inhibition of human cytochrome P450 1A2 measured by 7-methoxyresorufin O-demethylation (MROD); type: ADME
T4 sequence (P05177 whole entry): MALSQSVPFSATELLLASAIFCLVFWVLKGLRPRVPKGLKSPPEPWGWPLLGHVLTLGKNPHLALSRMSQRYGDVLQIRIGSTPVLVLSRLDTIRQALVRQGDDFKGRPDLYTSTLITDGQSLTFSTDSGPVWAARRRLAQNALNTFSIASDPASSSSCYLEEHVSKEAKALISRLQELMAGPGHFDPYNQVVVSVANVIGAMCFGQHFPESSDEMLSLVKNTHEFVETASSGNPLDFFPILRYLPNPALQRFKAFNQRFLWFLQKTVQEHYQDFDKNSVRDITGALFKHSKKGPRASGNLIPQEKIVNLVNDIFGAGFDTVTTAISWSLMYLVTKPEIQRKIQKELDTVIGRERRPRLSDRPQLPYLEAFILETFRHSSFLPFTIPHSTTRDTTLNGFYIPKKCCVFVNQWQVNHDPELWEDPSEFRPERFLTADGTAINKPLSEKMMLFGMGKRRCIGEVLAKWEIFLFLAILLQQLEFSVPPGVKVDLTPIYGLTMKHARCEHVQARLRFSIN

[9] = target: T5, CYP1A2 (Homo sapiens, UniProt P05177); test: as §2; type: ADME; conditions: human, probe 7-methoxyresorufin (O-demethylation, MROD)
T5 sequence (P05177 whole entry): T4 sequence (P05177 whole entry)

[10] = target: T4, Cytochrome P450 1A2; test: Mechanism based inhibition of human cytochrome P450 1A2 measured by 7-ethoxyresorufin O-deethylation (EROD); type: ADME
[11] = target: T2, Cytochrome P450 1A1; test: Mechanism based inhibition of rat cytochrome P450 CYP1A1; type: ADME
[12] = target: T6, Cytochrome P450 1A1 (Homo sapiens, UniProt P04798); test: (§3) Mechanism based inhibition of human cytochrome P450 1A1 measured by 7-ethoxyresorufin O-deethylation (EROD); type: ADME
T6 sequence (P04798 whole entry): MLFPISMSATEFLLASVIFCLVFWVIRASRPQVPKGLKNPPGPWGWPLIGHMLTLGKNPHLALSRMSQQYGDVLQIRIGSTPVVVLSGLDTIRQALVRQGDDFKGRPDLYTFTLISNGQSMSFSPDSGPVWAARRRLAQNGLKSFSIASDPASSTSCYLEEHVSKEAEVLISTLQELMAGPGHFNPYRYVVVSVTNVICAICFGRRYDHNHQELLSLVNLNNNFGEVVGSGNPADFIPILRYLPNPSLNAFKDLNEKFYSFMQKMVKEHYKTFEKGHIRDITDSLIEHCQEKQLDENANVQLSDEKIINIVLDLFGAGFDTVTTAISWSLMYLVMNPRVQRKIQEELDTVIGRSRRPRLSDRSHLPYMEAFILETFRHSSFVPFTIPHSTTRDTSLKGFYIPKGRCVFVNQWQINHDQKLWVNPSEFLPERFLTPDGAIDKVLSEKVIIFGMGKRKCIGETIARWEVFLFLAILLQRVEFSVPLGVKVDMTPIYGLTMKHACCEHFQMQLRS

[13] = target: CYP1A1 (Homo sapiens, UniProt P04798); test: as §3; type: ADME; conditions: human, probe 7-ethoxyresorufin (O-deethylation, EROD)
[14] = target: T7, Cytochrome P450 1B1 (Homo sapiens, UniProt Q16678); test: Mechanism based inhibition of human cytochrome P450 1B1 measured by 7-ethoxyresorufin O-deethylation (EROD); type: ADME
T7 sequence (Q16678 whole entry): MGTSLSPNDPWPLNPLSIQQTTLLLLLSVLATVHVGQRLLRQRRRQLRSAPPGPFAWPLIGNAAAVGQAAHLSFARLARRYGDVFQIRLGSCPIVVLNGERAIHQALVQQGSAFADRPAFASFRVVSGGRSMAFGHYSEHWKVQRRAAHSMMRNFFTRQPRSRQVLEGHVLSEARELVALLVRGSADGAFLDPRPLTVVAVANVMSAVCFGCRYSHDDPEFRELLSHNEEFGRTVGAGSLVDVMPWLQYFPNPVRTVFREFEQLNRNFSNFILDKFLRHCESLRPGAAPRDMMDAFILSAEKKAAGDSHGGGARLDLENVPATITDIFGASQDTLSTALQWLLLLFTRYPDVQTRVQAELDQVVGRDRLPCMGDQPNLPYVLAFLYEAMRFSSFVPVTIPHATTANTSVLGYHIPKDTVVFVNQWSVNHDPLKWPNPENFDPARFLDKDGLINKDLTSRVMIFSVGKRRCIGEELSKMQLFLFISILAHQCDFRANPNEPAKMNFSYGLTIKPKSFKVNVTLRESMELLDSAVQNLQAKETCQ

T1 sequence (P05182 whole entry): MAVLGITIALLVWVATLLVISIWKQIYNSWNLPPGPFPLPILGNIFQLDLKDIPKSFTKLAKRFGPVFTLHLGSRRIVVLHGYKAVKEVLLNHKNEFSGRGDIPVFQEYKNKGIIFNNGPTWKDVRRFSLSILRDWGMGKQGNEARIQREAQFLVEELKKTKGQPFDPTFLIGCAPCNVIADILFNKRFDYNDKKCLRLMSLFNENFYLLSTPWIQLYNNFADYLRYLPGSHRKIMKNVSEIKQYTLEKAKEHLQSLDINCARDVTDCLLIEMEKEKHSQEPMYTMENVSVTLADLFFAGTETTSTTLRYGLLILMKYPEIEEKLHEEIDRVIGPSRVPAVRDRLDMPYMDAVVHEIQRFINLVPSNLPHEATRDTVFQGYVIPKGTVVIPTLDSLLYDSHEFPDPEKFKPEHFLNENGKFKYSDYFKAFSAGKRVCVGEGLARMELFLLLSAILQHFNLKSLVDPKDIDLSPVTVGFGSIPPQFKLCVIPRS
Sequence of Cytochrome P450 3A11 (Q64459 whole entry): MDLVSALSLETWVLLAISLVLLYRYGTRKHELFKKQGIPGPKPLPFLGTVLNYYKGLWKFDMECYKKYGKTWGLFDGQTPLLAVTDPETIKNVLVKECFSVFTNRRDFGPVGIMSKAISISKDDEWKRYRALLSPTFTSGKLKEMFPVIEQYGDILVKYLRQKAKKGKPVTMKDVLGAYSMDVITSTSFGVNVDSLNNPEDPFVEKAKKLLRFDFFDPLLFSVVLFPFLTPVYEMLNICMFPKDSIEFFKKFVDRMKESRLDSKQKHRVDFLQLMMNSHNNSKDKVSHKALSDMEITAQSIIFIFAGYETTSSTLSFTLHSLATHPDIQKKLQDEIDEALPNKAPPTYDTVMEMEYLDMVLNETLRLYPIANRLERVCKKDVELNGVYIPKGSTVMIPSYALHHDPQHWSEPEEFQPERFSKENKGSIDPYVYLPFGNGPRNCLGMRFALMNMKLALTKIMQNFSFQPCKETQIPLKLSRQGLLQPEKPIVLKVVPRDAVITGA
Sequence of Cytochrome P450 11B1, mitochondrial (P15150 whole entry): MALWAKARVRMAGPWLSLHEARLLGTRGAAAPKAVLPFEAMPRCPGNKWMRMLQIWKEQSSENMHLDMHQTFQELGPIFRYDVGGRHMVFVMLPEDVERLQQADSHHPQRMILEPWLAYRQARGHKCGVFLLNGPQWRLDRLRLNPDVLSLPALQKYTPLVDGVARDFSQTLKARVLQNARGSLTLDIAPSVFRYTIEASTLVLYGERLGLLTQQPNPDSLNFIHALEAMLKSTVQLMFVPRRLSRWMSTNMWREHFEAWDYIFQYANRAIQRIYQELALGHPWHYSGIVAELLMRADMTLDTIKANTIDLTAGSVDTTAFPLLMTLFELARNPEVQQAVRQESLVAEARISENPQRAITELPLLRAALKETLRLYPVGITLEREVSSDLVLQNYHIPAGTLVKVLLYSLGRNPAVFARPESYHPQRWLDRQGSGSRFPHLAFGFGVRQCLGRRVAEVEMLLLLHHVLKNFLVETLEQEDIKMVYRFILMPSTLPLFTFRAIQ
Sequence of Cytochrome P450 4A4 (P10611 whole entry): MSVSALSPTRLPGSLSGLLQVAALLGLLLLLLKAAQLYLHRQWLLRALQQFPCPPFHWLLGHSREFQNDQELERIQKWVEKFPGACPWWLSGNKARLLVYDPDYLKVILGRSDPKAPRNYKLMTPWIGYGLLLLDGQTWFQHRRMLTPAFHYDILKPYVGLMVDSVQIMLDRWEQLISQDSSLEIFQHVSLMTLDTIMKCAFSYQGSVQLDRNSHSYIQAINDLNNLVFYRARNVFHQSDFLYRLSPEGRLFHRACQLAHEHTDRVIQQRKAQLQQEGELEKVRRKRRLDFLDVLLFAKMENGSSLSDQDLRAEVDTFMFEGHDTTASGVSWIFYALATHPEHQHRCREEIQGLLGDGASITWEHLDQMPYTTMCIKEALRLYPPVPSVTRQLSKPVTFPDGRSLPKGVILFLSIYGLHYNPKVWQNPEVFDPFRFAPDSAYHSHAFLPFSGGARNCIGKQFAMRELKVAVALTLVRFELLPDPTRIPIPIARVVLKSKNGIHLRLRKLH

Structure (SMILES): CC(C)(C)N=C=S
mechanism based inhibition [1]: Cytochrome P450 mechanistic inhibitor: PMID 9778311 | mechanism based inhibition [2]: Cytochrome P450 mechanistic inhibitor: PMID 9778311

Structure (SMILES): C=C(C)[C@@H]1CCC(C)=C[C@H]1c1c(O)cc(CCCCC)cc1O [CANNABIDIOL]
mechanism based inhibition [3]: Cytochrome P450 mechanistic inhibitor: PMID 9778318

Ki [4]: 2700 nM | kinact [5]: 0.00867 s⁻¹
Structure (SMILES): O=C(NCCc1ccc([N+](=O)[O-])cc1)C(Cl)Cl

Structure (SMILES): C#CCCCC(O)CCCCCCCCCCC(=O)O (stereo not given)
mechanism based inhibition [6]: Cytochrome P450 mechanistic inhibitor: PMID 9168258

Structure (SMILES): C=CC[C@]12CC[C@H]3[C@@H](CCC4=CC(=O)CC[C@@]43C)[C@@H]1CC[C@@H]2C(C)=O
mechanism based inhibition [7]: Cytochrome P450 mechanistic inhibitor: PMID 8645613

Ki [8]: 13 nM | kinact [9]: 0.00167 s⁻¹ | Ki [12]: 220 nM | kinact [13]: 0.00667 s⁻¹
Structure (SMILES): CC#Cc1ccc(-c2ccccc2)cc1
mechanism based inhibition [10]: Cytochrome P450 mechanistic inhibitor: PMID 9760279 | mechanism based inhibition [11]: Cytochrome P450 mechanistic inhibitor: PMID 9074808 | mechanism based inhibition [12]: Cytochrome P450 mechanistic inhibitor: PMID 9760279 | mechanism based inhibition [14]: Cytochrome P450 mechanistic inhibitor: PMID 9760279
